Results: article PMC12486301 (The Journal of pharmacology and experimental therapeutics, 2025)
Where a name gives a salt, the structure may show the parent alone. Read-outs that look alike come from different tables or passages of the source.

Assays:
ENT1 = biological target: T1, ENT1 (Homo sapiens, UniProt Q99808); experiment: Inhibition of [3H]uridine uptake into WT HeLa; assay type: cell-based; details: for inhibition at 20 µM: HeLa; for ENT1 % Inhibition (±SD): 20 μM, model-predicted compounds from MedChem Express Drug Repurposing Library
T1 sequence (Q99808 1-456): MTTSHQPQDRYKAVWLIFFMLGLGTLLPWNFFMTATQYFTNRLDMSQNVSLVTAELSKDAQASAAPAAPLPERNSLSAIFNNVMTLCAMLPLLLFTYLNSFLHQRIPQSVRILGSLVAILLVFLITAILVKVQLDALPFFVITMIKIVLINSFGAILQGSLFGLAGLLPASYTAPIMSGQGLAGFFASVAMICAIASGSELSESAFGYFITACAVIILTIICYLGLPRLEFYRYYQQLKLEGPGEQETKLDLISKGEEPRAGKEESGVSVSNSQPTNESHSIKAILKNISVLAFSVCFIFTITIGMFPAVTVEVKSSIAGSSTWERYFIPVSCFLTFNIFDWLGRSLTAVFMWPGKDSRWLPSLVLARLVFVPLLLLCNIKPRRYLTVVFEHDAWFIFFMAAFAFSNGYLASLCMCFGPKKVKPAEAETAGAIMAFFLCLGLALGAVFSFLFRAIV

ENT2 = biological target: T2, ENT2 (Homo sapiens, UniProt Q14542); experiment: Inhibition of [3H]uridine uptake into HeLa FlpIn cells overexpressing hENT2; assay type: cell-based; details: for inhibition at 20 µM: HeLa, read-out: ENT2 % Inhibition (20μM)
T2 sequence (Q14542 1-456): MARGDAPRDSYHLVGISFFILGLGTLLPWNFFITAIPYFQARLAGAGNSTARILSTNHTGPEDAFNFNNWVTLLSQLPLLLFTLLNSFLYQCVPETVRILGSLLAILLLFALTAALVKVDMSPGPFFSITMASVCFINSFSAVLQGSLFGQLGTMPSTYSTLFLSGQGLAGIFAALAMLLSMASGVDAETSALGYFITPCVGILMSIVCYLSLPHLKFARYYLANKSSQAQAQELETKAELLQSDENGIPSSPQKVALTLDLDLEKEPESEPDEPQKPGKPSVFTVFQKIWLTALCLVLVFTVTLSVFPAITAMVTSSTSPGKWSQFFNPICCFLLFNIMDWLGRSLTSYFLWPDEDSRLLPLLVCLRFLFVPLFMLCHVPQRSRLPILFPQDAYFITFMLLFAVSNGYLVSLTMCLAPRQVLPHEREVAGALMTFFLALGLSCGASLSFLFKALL

[1] = read-out: ENT1 % Inhibition (±SD)
[2] = read-out: ENT1 % Inhibition (20μM)

Structure (SMILES): NC[C@H]1O[C@H](O[C@H]2[C@H](O)[C@@H](O[C@H]3O[C@H](CO)[C@@H](O)[C@H](N)[C@H]3O)[C@H](N)C[C@@H]2N)[C@H](O)[C@@H](O)[C@@H]1O [kanamycin]
- ENT1 % Inhibition (20μM) (ENT1): 43.7%
- ENT2 % Inhibition (20μM) (ENT2; 20 μM compound, 5 min [3H]uridine uptake, HeLa cells overexpressing hENT2): 11.7%

Structure (SMILES): Cc1c(OCC(F)(F)F)ccnc1C[S@@+]([O-])c1nc2ccccc2[nH]1 [(R)-Lansoprazole]
- inhibition at 20 µM (ENT1; [1]): 73.6%

Structure (SMILES): C[C@@H]1O[C@@H](O[C@H]2[C@H](Oc3cc(O)c4c(c3)O[C@H](c3ccc(O)cc3)CC4=O)O[C@H](CO)[C@@H](O)[C@@H]2O)[C@H](O)[C@H](O)[C@H]1O [naringin]
- IC50 (ENT1): 101 ± 8.9 µM
- inhibition at 20 µM (ENT1; [2]): 24.4%
- IC50 (ENT2): 266 ± 81.5 µM
- inhibition at 20 µM (ENT2): 8.5%

Structure (SMILES): O=c1c(O)c(-c2ccc(O)c(O)c2)oc2cc(O)cc(O)c12 [quercetin]
- IC50 (ENT1): 20.6 ± 6.8 µM
- inhibition at 20 µM (ENT1; [2]): 53.1%
- IC50 (ENT2): 117 ± 24.6 µM
- inhibition at 20 µM (ENT2): 84.3%

Structure (SMILES): Cc1ccc(C(=O)Nc2ccc(Oc3cc4cnn(C)c4cc3-c3cn[nH]c3)c(F)c2)c(=O)n1-c1ccc(F)cc1.Cl.Cl [Merestinib dihydrochloride]
- ENT1 % Inhibition (±SD) (ENT1): 58.49 (4.13) %

Structure (SMILES): C#Cc1cccc(Nc2ncnc3cc(OC)c(OCCCN4CCOCC4)cc23)c1 [NRC-2694]
- ENT1 % Inhibition (±SD) (ENT1): 67.27 (11.1) %

Structure (SMILES): CCn1c(=O)c2c(nc(/C=C/c3ccc(OC)c(OC)c3)n2C)n(CC)c1=O [Istradefylline]
- inhibition at 20 µM (ENT1; [1]): 96.1%

Structure (SMILES): COc1cc(/C=C/c2ccc(O)cc2)cc(OC)c1 [Pterostilbene]
- inhibition at 20 µM (ENT1; [1]): 54.7%

Structure (SMILES): COC(=O)C1=C(C)NC(C)=C(C(=O)OC)C1c1ccccc1[N+](=O)[O-] [Nifedipine]
- inhibition at 20 µM (ENT1; [1]): 72.6%

Structure (SMILES): COc1cc(OC)c2c(=O)[nH]c(-c3cc(C)c(OCCO)c(C)c3)nc2c1 [Apabetalone]
- inhibition at 20 µM (ENT1; [1]): 88.1%

Structure (SMILES): COc1cc2c(Nc3ccc(Br)cc3F)ncnc2cc1OCC1CCN(C)CC1 [Vandetanib]
- inhibition at 20 µM (ENT1; [1]): 50.3%

Structure (SMILES): COc1cc([C@H]2Oc3cc([C@H]4Oc5cc(O)cc(O)c5C(=O)[C@@H]4O)ccc3O[C@@H]2CO)ccc1O [Silybin A]
- inhibition at 20 µM (ENT1; [1]): 67.5%

Structure (SMILES): COc1cccc(C(=O)COc2ccc(CC3SC(=O)NC3=O)cc2)c1 (centres unmarked) [Azemiglitazone]
- ENT1 % Inhibition (±SD) (ENT1): 74.95 (4.00) %

Structure (SMILES): C[C@]12CC[C@@H]3c4ccc(O)cc4CC[C@H]3[C@@H]1CC[C@H]2O [Alpha-Estradiol]
- inhibition at 20 µM (ENT1; [1]): 77.2%

Structure (SMILES): C/C=C/c1cc(OC)c(OC)cc1OC [alpha-Asarone]
- ENT1 % Inhibition (±SD) (ENT1): 52.42 (3.92) %

Structure (SMILES): COc1cc2ncnc(Nc3ccc(F)c(Cl)c3)c2cc1OCCCN1CCOCC1 [gefitinib]
- inhibition at 20 µM (ENT2): 54.6%

Structure (SMILES): COc1ccc2[nH]c([S+]([O-])Cc3ncc(C)c(OC)c3C)nc2c1 (centres unmarked) [Omeprazole (sodium), Omeprazole]
- inhibition at 20 µM (ENT1; [1]): 51.3%

Structure (SMILES): CO[C@H]1C[C@@H]2CC[C@@H](C)[C@@](O)(O2)C(=O)C(=O)N2CCCC[C@H]2C(=O)O[C@H]([C@H](C)C[C@@H]2CC[C@@H](OCCO)[C@H](OC)C2)CC(=O)[C@H](C)/C=C(\C)[C@@H](O)[C@@H](OC)C(=O)[C@H](C)C[C@H](C)/C=C/C=C/C=C/1C [Everolimus]
- inhibition at 20 µM (ENT1; [1]): 92%

Structure (SMILES): COC(=O)C1=C(C)NC(C)=C(C(=O)OCCN(C)Cc2ccccc2)C1c1cccc([N+](=O)[O-])c1 (centres unmarked) [Nicardipine (hydrochloride), Nicardipine]
- inhibition at 20 µM (ENT1; [1]): 76.8%

Structure (SMILES): CO[C@H]1CC[C@H](n2c([C@@H]3CCCC(=O)N3c3ccc(F)c(F)c3)nc3cc(-c4c(C)noc4C)ccc32)CC1 [Inobrodib]
- inhibition at 20 µM (ENT1; [1]): 91.4%

Structure (SMILES): COc1cccc(-c2nccc3[nH]c(=O)c(-c4noc(C)n4)cc23)c1 [Radequinil]
- ENT1 % Inhibition (±SD) (ENT1): 98.17 (0.19) %

Structure (SMILES): COC(=O)c1cc(OC)c2c(c1-c1c(CO)cc(OC)c3c1OCO3)OCO2 [Bicyclol]
- inhibition at 20 µM (ENT1; [1]): 72.3%

Structure (SMILES): CCn1cnc2c(-c3ccc(F)c(-c4ccc(S(=O)(=O)CC)cc4OC)c3)cnnc21 [PF-06372865]
- ENT1 % Inhibition (±SD) (ENT1): 100.45 (0.02) %

Structure (SMILES): CNc1nc(-c2cccc(NC(=O)c3ccc(C(=O)OC)cc3)c2)c2cc(OC)c(OC)cc2n1 [Lotamilast]
- inhibition at 20 µM (ENT1; [1]): 81.3%

Structure (SMILES): CCCOc1ccc(S(=O)(=O)N2CCN(CCO)CC2)cc1-c1nc2c(CCC)cn(CC)c2c(=O)[nH]1 [Mirodenafil (dihydrochloride), Mirodenafil]
- inhibition at 20 µM (ENT1; [1]): 79.3%
